These results are taken from ChEMBL document CHEMBL1141148, “Antidiabetic activity of passive nonsteroidal glucocorticoid receptor modulators” (J Med Chem, 2005).

Assay [1] deals with T1, Glucocorticoid receptor (Homo sapiens) (UniProt P04150).
T1 sequence (whole entry): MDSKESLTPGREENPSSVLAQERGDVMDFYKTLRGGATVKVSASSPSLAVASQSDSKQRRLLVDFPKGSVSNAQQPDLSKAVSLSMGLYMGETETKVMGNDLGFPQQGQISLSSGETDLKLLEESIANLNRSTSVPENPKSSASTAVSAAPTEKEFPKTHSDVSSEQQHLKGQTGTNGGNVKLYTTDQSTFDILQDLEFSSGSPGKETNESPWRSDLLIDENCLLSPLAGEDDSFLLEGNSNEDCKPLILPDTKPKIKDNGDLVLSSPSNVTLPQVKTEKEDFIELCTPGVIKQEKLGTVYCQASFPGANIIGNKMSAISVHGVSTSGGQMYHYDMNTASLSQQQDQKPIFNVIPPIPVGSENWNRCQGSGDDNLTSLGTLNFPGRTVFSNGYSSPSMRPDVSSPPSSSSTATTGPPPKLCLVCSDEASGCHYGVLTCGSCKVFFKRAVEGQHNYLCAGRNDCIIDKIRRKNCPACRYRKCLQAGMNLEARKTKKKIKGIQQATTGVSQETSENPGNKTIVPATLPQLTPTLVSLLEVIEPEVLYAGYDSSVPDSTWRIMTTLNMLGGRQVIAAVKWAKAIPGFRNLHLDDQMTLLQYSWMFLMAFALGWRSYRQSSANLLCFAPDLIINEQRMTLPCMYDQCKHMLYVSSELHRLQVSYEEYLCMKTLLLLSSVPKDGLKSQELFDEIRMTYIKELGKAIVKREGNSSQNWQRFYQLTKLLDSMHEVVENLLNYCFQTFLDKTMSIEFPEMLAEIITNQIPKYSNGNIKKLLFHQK
The following applies: Huh-7.

The target in assay [2] is T2, Mineralocorticoid receptor (Homo sapiens, UniProt P08235).
T2 sequence (P08235 whole entry): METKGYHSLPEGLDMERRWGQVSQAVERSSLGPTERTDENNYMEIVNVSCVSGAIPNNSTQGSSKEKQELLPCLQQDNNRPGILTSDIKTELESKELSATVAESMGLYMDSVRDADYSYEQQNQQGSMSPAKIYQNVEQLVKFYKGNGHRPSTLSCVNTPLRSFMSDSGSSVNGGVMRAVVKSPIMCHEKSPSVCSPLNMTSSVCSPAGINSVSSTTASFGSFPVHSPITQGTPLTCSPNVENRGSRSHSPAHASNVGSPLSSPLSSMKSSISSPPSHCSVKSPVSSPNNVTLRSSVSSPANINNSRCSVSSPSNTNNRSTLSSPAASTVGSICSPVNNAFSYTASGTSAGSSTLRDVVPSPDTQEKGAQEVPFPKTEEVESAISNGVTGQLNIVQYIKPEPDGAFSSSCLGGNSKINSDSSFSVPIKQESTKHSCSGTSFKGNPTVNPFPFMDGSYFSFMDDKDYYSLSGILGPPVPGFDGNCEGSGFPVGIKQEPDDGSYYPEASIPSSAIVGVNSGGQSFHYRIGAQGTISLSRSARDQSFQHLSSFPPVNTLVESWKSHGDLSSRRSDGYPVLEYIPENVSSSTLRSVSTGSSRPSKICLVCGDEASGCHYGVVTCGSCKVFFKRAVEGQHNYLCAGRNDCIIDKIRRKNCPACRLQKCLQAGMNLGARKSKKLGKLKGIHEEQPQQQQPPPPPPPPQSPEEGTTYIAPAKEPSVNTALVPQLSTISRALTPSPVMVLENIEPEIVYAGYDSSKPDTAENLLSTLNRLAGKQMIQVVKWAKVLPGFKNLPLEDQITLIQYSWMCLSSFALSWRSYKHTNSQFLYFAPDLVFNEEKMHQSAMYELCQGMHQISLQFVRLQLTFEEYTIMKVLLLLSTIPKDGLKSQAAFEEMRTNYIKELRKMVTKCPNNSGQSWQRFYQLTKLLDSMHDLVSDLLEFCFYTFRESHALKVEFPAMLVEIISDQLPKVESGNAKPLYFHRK
Description: Inhibition of human mineralocorticoid receptor.

For the next assay, the target named is T3, Androgen receptor (Homo sapiens, UniProt P10275).
T3 sequence (P10275 whole entry): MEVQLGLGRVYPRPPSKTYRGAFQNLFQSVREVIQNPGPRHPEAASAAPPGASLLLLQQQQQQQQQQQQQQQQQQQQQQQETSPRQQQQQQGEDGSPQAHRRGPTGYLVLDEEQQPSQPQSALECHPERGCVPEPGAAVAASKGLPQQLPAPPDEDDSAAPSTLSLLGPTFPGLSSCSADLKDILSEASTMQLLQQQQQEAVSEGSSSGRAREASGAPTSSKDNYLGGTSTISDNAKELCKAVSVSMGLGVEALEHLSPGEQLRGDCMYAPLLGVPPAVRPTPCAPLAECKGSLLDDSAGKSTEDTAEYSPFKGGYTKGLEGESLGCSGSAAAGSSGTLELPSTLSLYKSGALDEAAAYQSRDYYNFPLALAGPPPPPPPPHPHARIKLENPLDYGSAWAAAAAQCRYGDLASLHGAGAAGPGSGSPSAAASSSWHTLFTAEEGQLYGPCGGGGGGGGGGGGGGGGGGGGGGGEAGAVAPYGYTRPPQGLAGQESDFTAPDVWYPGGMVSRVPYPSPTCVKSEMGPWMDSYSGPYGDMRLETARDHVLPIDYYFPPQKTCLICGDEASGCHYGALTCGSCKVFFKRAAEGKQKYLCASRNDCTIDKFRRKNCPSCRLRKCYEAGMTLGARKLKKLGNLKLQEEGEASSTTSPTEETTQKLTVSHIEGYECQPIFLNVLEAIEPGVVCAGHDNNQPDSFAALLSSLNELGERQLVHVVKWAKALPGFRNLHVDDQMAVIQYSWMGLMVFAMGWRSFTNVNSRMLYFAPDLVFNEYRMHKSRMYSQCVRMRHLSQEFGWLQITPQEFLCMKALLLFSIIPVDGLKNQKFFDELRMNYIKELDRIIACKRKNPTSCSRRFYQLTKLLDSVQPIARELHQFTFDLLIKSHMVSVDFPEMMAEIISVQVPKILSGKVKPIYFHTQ

Molecules are shown by their SMILES. pIC50: −log10 of the molar value. Activity calls are given as the source filed them. No cut-off for these calls is given here.

As to `Cc1c(NS(C)(=O)=O)cccc1N(Cc1ccc(Oc2ccc(F)c(OCC(=O)O)c2)cc1)Cc1ccc(F)cc1F`, the Agonistic activity entry in assay [1] was “inactive”.

Regarding `CC#C[C@]1(O)CC[C@H]2[C@@H]3CCC4=CC(=O)CC[C@]4(Cc4ccc(C)cc4)C3=CC[C@@]21C`, the pIC50 in assay [2] was 5.20; at Androgen receptor, 5.19.

In the case of `Cc1c(NS(C)(=O)=O)cccc1N(Cc1ccc(Oc2ccc(Cl)c(OCC(=O)O)c2)cc1)Cc1ccc(F)cc1F`, the Agonistic activity result in assay [1] is “inactive”. Moreover, the negative logarithm of the IC50 (pIC50) was 6.00 in assay [2] and 5.44 on Androgen receptor.

Take `Cc1c(NS(C)(=O)=O)cccc1N(Cc1ccccc1)Cc1ccc(Oc2ccc(OCC(=O)O)cc2)cc1`: the pIC50 is 6.16 in assay [2] and 4.93 on Androgen receptor.

Consider `Cc1c(NS(C)(=O)=O)cccc1N(Cc1ccccc1)Cc1ccc(Oc2cccc(OCCCC(=O)NCCCC(=O)O)c2)cc1`, for which the Agonistic activity result in assay [1] was “inactive”. For the same compound, the pIC50 was 6.92 in assay [2] and 5.80 on Androgen receptor.

As usually defined, the pIC50 is the negative decadic logarithm of the IC50, by convention in mol/L.
